Measured values: patent US20090017105A1, “PROLIPOSOMAL AND LIPOSOMAL COMPOSITIONS OF POORLY WATER SOLUBLE DRUGS” (priority 2007, published 2009)
Counter-ions that a name gives are not always drawn. Like-named read-outs stand apart in the source and are kept apart here.

Legend:
[1] = cited from earlier work; for entrapment in the liposomes: Mayhew et al., U.S. Pat. No. 5,939,567 and 6,118,011
[2] = Ogawa et al., U.S. Pat. No. 5,094,854, cited from earlier work
SKOV3 = test: In vitro cytotoxicity, 72 hour MIT assay; assay type: cell-based; details: Homo sapiens, SK-OV-3; Ovary, SKOV3, 72 hour
Text: (§1) The cytotoxicity of the Liposomal composition of Docetaxel (hereinafter referred to as “LD”) in vitro in a panel of human cancer cell lines, expected to be sensitive to Docetaxel and the effects were compared with the conventional, approved, marketed composition of Docetaxel, viz. Taxotere® (hereinafter referred to as “CD”). A solution of bulk Docetaxel in DMSO was taken as a positive control for the studies.

DU145 = test: In vitro cytotoxicity, 72 hour MIT assay; assay type: cell-based; details: Homo sapiens, DU-145; Prostrate, DU145, 72 hour
Text: as §1

MDA MB 453 = test: In vitro cytotoxicity, 72 hour MIT assay; assay type: cell-based; details: Homo sapiens; Breast, MDA MB 453, 72 hour
Text: as §1

PAI = test: In vitro cytotoxicity, 72 hour MIT assay; assay type: cell-based; details: Homo sapiens, Ovary
Text: as §1

[3] = cited from earlier work
[4] = Durr et al., U.S. Pat. No. 5,670,536; cited from earlier work
[5] = liposome system of Hager et al.

For `CCCCCC(=O)OC(C(=O)OC1CC2(O)C(OC(=O)c3ccccc3)C3C4(OC(C)=O)COC4CC(O)C3(C)C(=O)C(OC(C)=O)C(=C1C)C2(C)C)C(NC(=O)c1ccccc1)c1ccccc1` (stereo not shown) [2′-caproyl Paclitaxel], the “entrapment in the liposomes” value [1] is listed as “about 70%”.
In the case of `CCCCCC(=O)OC1CC2OCC2(OC(C)=O)C2C(OC(=O)c3ccccc3)C3(O)CC(OC(=O)C(O)C(NC(=O)c4ccccc4)c4ccccc4)C(C)=C(C(OC(C)=O)C(=O)C12C)C3(C)C` (stereo not shown) [7-caproyl Paclitaxel], the “entrapment in the liposomes” value [1] is listed as “about 90%”.
In the case of `N.N.[Cl][Pt][Cl]` [Cisplatin], the “rate of release of the drug” value ([2]; 39° C.) is given as “hardly anything” and the “rate of release of the drug” value ([2]; 42° C.) is given as 30 to 95%.
`CC(=O)O[C@@]12CO[C@@H]1C[C@H](O)[C@@]1(C)C(=O)[C@H](O)C3=C(C)[C@@H](OC(=O)[C@H](O)[C@@H](NC(=O)OC(C)(C)C)c4ccccc4)C[C@@](O)([C@@H](OC(=O)c4ccccc4)[C@H]21)C3(C)C` [Docetaxel Solution in DMSO, Docetaxel] gave an IC50 (SKOV3) of 9.87 ± 2.74 nM, an IC50 (DU145) of 5.13 ± 1.28 nM and an IC50 (MDA MB 453) of 15.1 ± 2.3 nM. The IC50 (PAI) was less than 0.01 nM, the “period for which liposomal compositions remain clear” value ([3]; Durr et al., U.S. Pat. No. 5,670,536, 20° C.) was “more than eight weeks” and the particle diameter [4] was 47 to 71 nm.
In the case of `COc1cccc2c1C(=O)c1c(O)c3c(c(O)c1C2=O)C[C@@](O)(C(=O)CO)C[C@@H]3O[C@H]1C[C@H](N)[C@H](O)[C@H](C)O1` [Doxorubicin hydrochloride], the encapsulation ([1]; liposome system of Hager et al., U.S. Pat. No. 5,556,637 and 5,741,517) is listed as 78%.
In the case of `COc1cccc2c1C(=O)c1c(O)c3c(c(O)c1C2=O)C[C@@](O)(C(=O)CO)C[C@@H]3O[C@H]1C[C@H](N)[C@H](O)[C@H](C)O1` [Doxorubicin], the “drug entrapment in the liposomes” value ([1]; liposomes of Barenholz et al., U.S. Pat. No. 4,797,285 and 4,898,735) is given as 85-90%, the “entrapment of the drug” value ([1]; thermosensitive liposomes of Needham et al., U.S. Pat. No. 6,200,598 and 6,726,925 B1) is given as “not more than 80%” and the drop in potency ([3]; lyophilized liposomal composition of Huang et al., WO 92/02208, in two weeks) is given as 10-15%.
In the case of Quinoline yellow, the liposome-bound active principle [1, 5] is given as 1.38 mg/mL and the non-liposomal-bound active principle [1, 5] is given as “about 3.2 mg/ml”.
